From ChEMBL document CHEMBL4308824, “Design of Small Molecule Autophagy Modulators: A Promising Druggable Strategy” (J Med Chem, 2018)
Structures can show the parent of a compound that is named as a salt. One block for each compound: values may come before it.

Assays:
[1] = molecular target: mTORC1 (Homo sapiens, UniProt P42345); format: protein-complex assay
[2] = molecular target: mTORC2 (Homo sapiens, UniProt P42345); format: protein-complex assay
[3] = tested on: BT-474; experiment: Cytotoxicity against human BT474 cells assessed as reduction in cell viability after 48 hrs by MTT assay; format: functional, cell-based; conditions: BT-474, 48 h
[4] = molecular target: T1, Serine/threonine-protein kinase ULK2 (Homo sapiens, UniProt Q8IYT8); experiment: Inhibition of ULK2 (unknown origin)
T1 sequence (Q8IYT8 whole entry): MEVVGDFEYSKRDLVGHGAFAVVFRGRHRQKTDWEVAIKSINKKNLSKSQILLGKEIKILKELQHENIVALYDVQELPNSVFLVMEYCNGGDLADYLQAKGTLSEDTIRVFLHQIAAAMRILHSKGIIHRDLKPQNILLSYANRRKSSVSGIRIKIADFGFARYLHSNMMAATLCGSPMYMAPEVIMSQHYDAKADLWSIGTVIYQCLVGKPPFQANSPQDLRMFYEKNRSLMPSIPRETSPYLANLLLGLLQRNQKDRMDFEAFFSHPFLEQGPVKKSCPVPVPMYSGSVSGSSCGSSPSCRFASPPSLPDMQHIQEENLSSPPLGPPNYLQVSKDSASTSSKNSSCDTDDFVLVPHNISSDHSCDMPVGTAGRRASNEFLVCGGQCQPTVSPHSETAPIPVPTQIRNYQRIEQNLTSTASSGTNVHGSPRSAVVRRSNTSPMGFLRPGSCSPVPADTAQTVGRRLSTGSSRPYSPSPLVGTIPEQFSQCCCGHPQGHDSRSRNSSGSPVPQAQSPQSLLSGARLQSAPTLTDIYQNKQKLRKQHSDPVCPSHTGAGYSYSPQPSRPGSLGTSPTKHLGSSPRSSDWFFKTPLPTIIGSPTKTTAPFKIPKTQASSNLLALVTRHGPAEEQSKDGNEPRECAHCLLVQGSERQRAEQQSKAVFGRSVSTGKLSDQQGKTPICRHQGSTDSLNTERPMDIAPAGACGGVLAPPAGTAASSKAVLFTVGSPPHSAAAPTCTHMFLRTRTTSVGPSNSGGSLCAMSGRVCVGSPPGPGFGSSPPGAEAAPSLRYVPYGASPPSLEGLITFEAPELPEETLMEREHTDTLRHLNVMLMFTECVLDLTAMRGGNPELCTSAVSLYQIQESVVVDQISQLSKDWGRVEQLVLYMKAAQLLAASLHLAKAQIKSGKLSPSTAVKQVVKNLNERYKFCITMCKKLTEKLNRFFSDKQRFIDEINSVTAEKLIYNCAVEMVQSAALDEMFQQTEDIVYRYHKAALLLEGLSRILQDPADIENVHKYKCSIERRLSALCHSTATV

[5] = molecular target: AMP-activated protein kinase (AMPK) alpha-1/beta-1/gamma-1 (Homo sapiens, UniProt P54619+Q13131+Q9Y478); experiment: Activation of recombinant human AMPK alpha1/beta1/gamma1 (unknown origin) using SAMS peptide as substrate preincubated for 20 mins followed by substrate and gamma-[32]P-ATP addition and measured after 30 mins by liquid scintillation counting method; format: protein-complex assay
[6] = tested on: U2OS; experiment: Inhibition of autophagy in human U2OS cells stably expressing tfLC3; format: functional
[7] = Cytotoxicity in human U2OS cells incubated for 24 to 48 hrs by CellTiter Glo assay; format: cell-based; conditions: read-out: LD50 (the source's name)
[8] = tested on: MDA-MB-231; experiment: Cytotoxicity against human MDA-MB-231 cells assessed as reduction in cell viability at 750 nM after 24 hrs by MTT assay relative to control; format: functional
[9] = molecular target: Phosphatidylinositol 4,5-bisphosphate 3-kinase catalytic subunit alpha isoform (Homo sapiens, UniProt P42336); experiment: Inhibition of PI3K p110alpha (unknown origin)
[10] = molecular target: Phosphatidylinositol 4,5-bisphosphate 3-kinase catalytic subunit beta isoform (Homo sapiens, UniProt P42338); experiment: Inhibition of PI3K p110beta (unknown origin)
[11] = molecular target: T2, Phosphatidylinositol 4,5-bisphosphate 3-kinase catalytic subunit delta isoform (Homo sapiens, UniProt O00329); experiment: Inhibition of PI3K p110delta (unknown origin)
T2 sequence (O00329 whole entry): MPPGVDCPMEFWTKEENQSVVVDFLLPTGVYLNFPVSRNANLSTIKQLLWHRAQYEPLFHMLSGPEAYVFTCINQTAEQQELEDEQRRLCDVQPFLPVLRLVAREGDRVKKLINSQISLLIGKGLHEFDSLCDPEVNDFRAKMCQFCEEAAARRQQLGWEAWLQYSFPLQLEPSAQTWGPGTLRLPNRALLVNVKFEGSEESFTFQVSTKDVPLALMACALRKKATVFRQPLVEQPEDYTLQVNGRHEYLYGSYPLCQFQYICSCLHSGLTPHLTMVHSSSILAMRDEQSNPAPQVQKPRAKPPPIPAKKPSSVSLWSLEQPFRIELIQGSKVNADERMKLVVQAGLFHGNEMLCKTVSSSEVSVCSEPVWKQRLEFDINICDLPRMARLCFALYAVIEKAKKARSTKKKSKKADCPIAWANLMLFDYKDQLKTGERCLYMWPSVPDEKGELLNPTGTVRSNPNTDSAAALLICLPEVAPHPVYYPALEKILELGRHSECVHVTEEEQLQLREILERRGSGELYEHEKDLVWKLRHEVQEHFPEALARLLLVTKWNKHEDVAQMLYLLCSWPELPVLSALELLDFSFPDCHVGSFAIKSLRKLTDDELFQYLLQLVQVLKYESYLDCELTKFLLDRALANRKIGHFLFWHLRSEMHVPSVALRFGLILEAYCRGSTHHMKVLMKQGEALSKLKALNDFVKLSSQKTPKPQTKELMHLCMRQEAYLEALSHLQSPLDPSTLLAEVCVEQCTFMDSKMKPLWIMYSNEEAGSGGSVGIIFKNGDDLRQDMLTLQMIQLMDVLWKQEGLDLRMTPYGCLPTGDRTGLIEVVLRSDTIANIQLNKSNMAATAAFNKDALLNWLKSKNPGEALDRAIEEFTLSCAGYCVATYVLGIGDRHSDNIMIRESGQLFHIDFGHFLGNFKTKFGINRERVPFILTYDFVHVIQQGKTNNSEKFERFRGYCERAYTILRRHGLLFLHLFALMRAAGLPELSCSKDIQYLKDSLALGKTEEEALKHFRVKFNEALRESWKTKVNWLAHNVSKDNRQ

[12] = tested on: CNE-2; experiment: Antiproliferative activity against human CNE2 cells after 72 hrs by MTT assay; format: functional, cell-based; conditions: CNE-2, 72 h
[13] = molecular target: Phosphatidylinositol 4,5-bisphosphate 3-kinase catalytic subunit gamma isoform (Homo sapiens, UniProt P48736)
[14] = Dissociation constant, pKa of compound; format: physicochemical
[15] = molecular target: T3, Serine/threonine-protein kinase ULK1 (Homo sapiens, UniProt O75385)
T3 sequence (O75385 whole entry): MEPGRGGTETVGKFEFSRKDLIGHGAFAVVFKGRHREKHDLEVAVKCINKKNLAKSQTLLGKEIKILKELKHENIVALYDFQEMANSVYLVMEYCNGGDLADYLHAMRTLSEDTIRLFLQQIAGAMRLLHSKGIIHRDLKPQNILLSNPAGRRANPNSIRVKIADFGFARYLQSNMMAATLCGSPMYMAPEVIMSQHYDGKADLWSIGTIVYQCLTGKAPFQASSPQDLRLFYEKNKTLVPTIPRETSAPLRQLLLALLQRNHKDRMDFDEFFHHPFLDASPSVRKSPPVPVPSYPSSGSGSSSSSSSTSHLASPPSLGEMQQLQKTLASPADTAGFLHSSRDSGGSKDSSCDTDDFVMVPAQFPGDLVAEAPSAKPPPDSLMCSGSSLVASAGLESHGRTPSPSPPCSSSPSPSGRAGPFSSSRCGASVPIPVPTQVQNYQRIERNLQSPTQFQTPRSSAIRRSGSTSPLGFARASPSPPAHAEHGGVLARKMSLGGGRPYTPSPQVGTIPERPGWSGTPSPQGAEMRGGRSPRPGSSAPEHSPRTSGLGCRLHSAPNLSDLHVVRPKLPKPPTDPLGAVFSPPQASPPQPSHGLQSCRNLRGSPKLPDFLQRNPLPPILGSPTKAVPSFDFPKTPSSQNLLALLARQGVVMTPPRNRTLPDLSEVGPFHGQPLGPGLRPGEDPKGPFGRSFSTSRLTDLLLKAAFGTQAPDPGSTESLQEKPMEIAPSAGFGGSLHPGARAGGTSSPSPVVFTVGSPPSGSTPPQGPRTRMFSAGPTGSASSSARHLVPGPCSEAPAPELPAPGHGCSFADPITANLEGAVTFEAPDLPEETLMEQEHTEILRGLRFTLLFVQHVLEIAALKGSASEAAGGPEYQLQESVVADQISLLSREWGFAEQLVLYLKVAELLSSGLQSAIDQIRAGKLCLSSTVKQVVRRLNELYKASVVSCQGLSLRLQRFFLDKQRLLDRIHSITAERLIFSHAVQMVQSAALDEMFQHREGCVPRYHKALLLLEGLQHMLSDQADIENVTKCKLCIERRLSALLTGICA

[16] = molecular target: T1, Serine/threonine-protein kinase ULK2

Phosphatidylinositol 4,5-bisphosphate 3-kinase catalytic subunit alpha isoform, sequence (P42336 whole entry, canonical isoform): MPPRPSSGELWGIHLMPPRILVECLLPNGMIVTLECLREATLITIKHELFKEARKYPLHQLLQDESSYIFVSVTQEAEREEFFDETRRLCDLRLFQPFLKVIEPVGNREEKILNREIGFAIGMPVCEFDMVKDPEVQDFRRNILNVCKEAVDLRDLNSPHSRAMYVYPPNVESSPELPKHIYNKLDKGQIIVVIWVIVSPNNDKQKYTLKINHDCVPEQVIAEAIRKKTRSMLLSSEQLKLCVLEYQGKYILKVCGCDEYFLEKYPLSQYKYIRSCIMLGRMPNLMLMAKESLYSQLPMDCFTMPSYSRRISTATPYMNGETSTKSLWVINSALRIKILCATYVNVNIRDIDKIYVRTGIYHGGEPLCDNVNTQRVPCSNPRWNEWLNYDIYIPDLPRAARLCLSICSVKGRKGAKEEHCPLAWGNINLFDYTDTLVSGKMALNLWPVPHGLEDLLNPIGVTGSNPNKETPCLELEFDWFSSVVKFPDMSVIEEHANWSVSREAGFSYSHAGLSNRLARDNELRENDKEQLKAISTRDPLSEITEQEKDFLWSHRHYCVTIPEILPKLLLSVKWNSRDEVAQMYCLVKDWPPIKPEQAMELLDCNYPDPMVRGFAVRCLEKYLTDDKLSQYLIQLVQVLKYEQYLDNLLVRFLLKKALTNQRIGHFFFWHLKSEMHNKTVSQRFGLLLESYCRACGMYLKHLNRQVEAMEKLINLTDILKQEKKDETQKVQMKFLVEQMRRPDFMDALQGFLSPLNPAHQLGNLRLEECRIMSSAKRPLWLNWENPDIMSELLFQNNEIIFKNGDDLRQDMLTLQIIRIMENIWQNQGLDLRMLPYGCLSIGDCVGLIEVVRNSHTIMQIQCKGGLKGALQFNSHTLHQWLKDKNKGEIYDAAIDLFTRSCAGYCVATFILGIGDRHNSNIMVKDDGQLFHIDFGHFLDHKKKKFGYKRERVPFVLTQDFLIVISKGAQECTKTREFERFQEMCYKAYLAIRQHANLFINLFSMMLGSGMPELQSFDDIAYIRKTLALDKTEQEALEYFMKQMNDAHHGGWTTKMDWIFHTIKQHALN
Phosphatidylinositol 4,5-bisphosphate 3-kinase catalytic subunit gamma isoform, sequence (P48736 whole entry, canonical isoform): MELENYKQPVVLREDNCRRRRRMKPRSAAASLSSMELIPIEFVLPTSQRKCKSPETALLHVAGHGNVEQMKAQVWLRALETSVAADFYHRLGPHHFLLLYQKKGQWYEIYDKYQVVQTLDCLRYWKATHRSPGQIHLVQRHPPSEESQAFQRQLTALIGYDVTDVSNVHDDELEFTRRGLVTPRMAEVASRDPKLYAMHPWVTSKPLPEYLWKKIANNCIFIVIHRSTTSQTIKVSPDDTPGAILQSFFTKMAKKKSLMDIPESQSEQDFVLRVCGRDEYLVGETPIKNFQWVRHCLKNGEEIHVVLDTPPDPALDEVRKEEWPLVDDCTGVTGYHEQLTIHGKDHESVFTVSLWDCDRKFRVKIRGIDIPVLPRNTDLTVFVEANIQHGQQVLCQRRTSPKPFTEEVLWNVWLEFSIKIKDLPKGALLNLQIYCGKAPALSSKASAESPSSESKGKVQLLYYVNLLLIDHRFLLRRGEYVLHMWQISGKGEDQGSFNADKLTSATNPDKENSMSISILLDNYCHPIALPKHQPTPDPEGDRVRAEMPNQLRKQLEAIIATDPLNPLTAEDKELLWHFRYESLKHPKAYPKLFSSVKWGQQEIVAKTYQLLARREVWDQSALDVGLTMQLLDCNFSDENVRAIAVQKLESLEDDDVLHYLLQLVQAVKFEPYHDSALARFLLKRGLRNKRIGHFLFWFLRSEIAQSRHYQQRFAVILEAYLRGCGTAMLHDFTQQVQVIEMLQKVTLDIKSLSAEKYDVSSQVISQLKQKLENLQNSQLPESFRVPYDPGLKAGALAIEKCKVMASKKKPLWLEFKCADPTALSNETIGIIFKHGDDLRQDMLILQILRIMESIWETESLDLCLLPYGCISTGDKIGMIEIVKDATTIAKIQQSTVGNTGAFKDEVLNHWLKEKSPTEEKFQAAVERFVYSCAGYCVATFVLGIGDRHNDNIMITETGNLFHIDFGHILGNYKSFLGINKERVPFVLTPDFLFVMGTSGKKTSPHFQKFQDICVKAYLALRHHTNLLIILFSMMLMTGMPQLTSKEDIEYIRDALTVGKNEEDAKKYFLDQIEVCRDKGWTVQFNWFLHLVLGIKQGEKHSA
AMP-activated protein kinase (AMPK) alpha-1/beta-1/gamma-1, sequence (P54619 whole entry): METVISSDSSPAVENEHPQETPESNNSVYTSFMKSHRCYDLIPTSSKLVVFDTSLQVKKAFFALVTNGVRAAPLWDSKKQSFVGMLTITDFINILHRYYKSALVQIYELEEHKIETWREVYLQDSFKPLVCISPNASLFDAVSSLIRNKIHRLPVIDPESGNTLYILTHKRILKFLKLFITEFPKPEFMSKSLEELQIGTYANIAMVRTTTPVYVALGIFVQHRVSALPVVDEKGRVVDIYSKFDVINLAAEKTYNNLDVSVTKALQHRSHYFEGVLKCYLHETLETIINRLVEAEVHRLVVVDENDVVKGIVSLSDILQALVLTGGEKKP
AMP-activated protein kinase (AMPK) alpha-1/beta-1/gamma-1, sequence (Q9Y478 whole entry): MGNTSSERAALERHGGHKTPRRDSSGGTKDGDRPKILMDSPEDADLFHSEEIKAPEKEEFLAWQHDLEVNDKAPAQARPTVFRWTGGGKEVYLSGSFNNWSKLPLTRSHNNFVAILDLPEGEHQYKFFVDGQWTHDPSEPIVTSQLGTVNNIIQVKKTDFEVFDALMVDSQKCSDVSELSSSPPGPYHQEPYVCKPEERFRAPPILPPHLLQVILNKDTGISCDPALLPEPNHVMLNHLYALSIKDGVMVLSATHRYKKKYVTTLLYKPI
AMP-activated protein kinase (AMPK) alpha-1/beta-1/gamma-1, sequence (Q13131 whole entry): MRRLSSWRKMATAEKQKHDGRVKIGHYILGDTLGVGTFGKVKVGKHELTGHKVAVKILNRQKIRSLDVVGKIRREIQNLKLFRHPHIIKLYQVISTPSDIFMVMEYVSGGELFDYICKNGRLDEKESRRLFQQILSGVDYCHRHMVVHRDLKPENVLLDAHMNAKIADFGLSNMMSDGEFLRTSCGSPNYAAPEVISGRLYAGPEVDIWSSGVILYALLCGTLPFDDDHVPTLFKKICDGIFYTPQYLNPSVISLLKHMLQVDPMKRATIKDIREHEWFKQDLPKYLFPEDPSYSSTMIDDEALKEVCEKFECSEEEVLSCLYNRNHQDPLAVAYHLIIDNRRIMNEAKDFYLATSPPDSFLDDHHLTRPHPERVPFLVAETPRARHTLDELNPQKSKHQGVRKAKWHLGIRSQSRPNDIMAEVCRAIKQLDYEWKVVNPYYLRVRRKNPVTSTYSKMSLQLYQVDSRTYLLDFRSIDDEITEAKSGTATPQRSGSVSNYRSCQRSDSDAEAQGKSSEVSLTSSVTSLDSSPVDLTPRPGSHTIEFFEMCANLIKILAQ
Phosphatidylinositol 4,5-bisphosphate 3-kinase catalytic subunit beta isoform, sequence (P42338 whole entry, canonical isoform): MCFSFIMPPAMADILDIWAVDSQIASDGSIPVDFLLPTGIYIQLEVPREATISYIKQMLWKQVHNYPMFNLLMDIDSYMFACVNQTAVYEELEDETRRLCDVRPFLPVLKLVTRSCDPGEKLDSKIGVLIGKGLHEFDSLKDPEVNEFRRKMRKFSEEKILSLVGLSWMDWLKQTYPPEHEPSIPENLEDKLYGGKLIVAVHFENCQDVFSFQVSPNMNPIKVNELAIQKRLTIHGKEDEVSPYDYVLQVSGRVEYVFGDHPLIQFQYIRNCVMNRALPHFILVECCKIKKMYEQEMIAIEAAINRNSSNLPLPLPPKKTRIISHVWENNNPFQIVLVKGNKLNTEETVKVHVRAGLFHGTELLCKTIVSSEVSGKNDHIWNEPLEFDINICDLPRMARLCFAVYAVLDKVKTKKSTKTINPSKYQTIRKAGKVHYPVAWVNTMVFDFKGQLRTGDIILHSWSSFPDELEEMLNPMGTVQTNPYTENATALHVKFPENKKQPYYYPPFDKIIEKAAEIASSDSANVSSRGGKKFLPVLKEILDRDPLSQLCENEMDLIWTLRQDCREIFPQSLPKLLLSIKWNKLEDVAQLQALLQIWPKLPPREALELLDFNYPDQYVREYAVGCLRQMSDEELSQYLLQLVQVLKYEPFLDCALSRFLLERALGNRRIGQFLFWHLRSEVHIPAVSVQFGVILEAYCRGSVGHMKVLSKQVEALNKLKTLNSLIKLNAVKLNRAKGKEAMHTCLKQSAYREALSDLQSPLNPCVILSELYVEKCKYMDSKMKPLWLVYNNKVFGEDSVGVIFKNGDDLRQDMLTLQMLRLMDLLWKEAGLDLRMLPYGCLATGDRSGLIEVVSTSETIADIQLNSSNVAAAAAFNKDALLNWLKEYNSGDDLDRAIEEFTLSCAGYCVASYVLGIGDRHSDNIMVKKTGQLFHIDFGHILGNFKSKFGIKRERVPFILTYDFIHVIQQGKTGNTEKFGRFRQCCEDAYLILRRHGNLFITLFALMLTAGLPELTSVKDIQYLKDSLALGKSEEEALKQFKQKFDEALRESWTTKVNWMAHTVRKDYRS

IC50 [1]: 0.001 to 0.005 µM
IC50 [2]: 0.001 to 0.005 µM
SMILES: O=C(/C=C/c1ccc2c(c1)OCO2)CC1(O)C(=O)Nc2ccccc21 (centres undefined)

SMILES: CCN(CC)CCCC(C)Nc1ccnc2cc(Cl)ccc12 (centres undefined) [CHLOROQUINE]
IC50 [3]: > 1000 µM

IC50 [4]: 0.011 µM
SMILES: CNC(=O)c1ccccc1Oc1nc(Nc2cc(OC)c(OC)c(OC)c2)ncc1Br

IC50 [1]: 0.005 to 0.009 µM
IC50 [2]: 0.005 to 0.009 µM
SMILES: COC(=O)Nc1ccc(-c2nc(N3CCOCC3)c3cnn(C4CCN(C(=O)OC)CC4)c3n2)cc1

EC50 [5]: 0.3 µM
SMILES: CC1(CN2C(=O)S/C(=C\c3ccc(NS(=O)(=O)c4ccc([N+](=O)[O-])c(C(F)(F)F)c4)cc3)C2=O)CCCCC1

SMILES: CCN(CC)CCCC(C)Nc1c2ccc(Cl)cc2nc2ccc(OC)cc12 (centres undefined) [QUINACRINE]
EC [6]: 0.2 µM
CC50 [7]: 2.5 µM

SMILES: COC(=O)Nc1nc2cc(C(=O)c3ccc(F)cc3)ccc2[nH]1 [FLUBENDAZOLE]
Activity [8]: 50%

IC50 [9]: 0.767 µM
IC50 [10]: 0.699 µM
IC50 [11]: 0.0028 µM
IC50 [13]: 0.0897 µM
SMILES: c1cnc2ccc(Nc3nc(NC4CC4)c4nc[nH]c4n3)cc2c1 [PUQUITINIB MESYLATE DIHYDRATE]
IC50 [12]: 5.2 µM

pKa [14]: > 7.5
SMILES: CN1CCN(Cc2cc(CNC3(c4ccccc4F)CCCC3)ccc2O)CC1
IC50 [3]: 23.5 to 30.1 µM

SMILES: CN1CCc2cc(Nc3ncc(C4CC4)c(NCCCNC(=O)C4CCC4)n3)ccc2C1
IC50 [15]: 0.0029 µM
IC50 [16]: 0.0011 µM
